Like-named read-outs stand apart in the source and are kept apart here.

Consider eleven compounds from patent US10052301B2, “Derivatives of propane diyl dicinnamate” (ORX PHARMACEUTICAL CORPORATION, priority 2009, dated 2018).

One test has as its system B16-BL6. The following applies: Banskota et al., J Ethnopharmacol 2002; read-out: EC50 against B16-BL6; cited from earlier work.
Test [1] deals with GM8399 (normal human fibroblast cells). As to the kind of experiment: MTT cell proliferation and viability assay, GM8399. Type of test: cell-based. Conditions: Table 4, comparative toxicity, 72 h, read-out: Inhibition Concentration (IC50) μM GM8399 (normal human fibroblast). The method, then:
(§1) Normal human fibroblast cell lines (GM9503 and GM8399) and human carcinoma cell lines MCF-7, A549, HCT116, SKOV-3 and PC-3 were maintained in DMEM (Dulbeco's Modified Essential Medium) supplemented with 10% FBS (Fetal Bovine Serum). In addition, murine leukemia MDAY-D2 cells were maintained in RPMI 1640 media supplemented with 5% FBS. All media were supplemented with 100 […] (all from Hyclone, Logan, Utah). Cells were incubated in a humidified air atmosphere containing 5% CO2 at 37° C.
(§2) Cell growth and viability were measured using the 3-(4,5-dimethythiazol-2-yl)-2,5-diphenyl tetrazolium bromide (MTT) reduction assay. MTT reagent (Sigma, St. Louis, Mo.) was prepared at 5 mg/ml in ddH2O (5× solution), filter sterilized and stored in the dark at −20° C.
(§3) To determine the optimal number of cells to seed per well, preliminary experiments were conducted examining increasing cell densities in 96 well plates. Cell were seeded at various densities and examined under the microscope after 96 h. Based on these experiments and growth curve analyses, optimal cell densities were selected for each cell line. In brief, exponentially growing cells were harvested and 100 μL of cell suspension containing approximately 2000 cells was plated in 96-well microtiter plates. After 24 hours of incubation to allow for cell attachment, cells were treated with varying concentrations of test samples in medium (60 μL/well) supplemented with 5% FBS and incubated for 72 h at 37° C. under 5% CO2. Three hours after the addition of MTT, the amount of formazan formed was measured spectrophotometrically at 570 nm with a Spectramax Plus 384 plate reader.
(§4) To assess the effects of the novel compounds on growth and viability, GM9503 (normal human fibroblast cells; 2.08×10^3 cells/well), GM8399 (normal human fibroblast cells; 2.04×10^3 cells/well), A549 (human lung carcinoma cells; 2.05×10^3 cells/well), HCT116 (human colon carcinoma cells; 2.19×10^3 cells/well), MCF-7 (human breast carcinoma cells; 2.19×10^3 cells/well), SKOV-3 (human ovarian carcinoma cells; 2.10×10^3 cells/well), PC-3 (human prostate carcinoma cells; 2.08×10^3 cells/well) and MDAY-D2 (murine leukemia cells; 2.5×10^3 cells/well) were seeded in 96 well plates in supplemented medium. Twenty-four hours post-seeding, cells were treated with either DMEM supplemented with 5% FBS (as a control) or with compounds (IIb), (Ie) and (Id) at increasing concentrations. After incubation for 72 h, cell growth and viability were measured. Each compound was tested in triplicate and the data shown in Tables 2-4 represent the mean of viable cells compared to medium control.

Test [2] has as its system HCT116 (human colon carcinoma cells). As to the kind of experiment: MTT cell proliferation and viability assay, HCT116. Type of test: cell-based. The following applies: for IC50: HCT-116, Table 3, 72 h, read-out: Inhibition Concentration (IC50) μM HCT116 (Colon); for EC50: HCT-116, Table 2, 72 h. The method, then:
as §1, §2, §3, §4

Another test deals with B-16 melanoma cell line. As to the kind of experiment: [3H]-thymidine incorporation, in vitro anticancer activity. Type of test: cell-based. Conditions: B16, 24 h + 24 h incubation. Here is the method: The cell lines were maintained in EMEM medium supplemented with 10% FCS, 0.1% sodium bicarbonate and 12 mM glutamine. In a typical procedure, 1×10^4 cells were seeded into each of 96 well plate in 90 μL volume of medium. The plates were incubated for 24 h in the presence of CO2 to allow for cell attachment. After 24 h, test compounds were evaluated at five 10 fold dilutions from 1:10, 1:100, 1:1000, 1:10000 and 1:100000. To each test well 100 μL of test compound solution was added and the medium with vehicle was added to control wells and the plates were further incubated. After 24 h of incubation, 10 μL of [3H]-thymidine was added to each well to obtain a 1 μCi concentration per well and incubated for a further 24 h. The plates were terminated, cells harvested and read by microbeta plate reader.
For orientation: Incorporation of labelled thymidine or its analogues reports DNA synthesis.

The subject of test [3] is GM9503 (normal human fibroblast cells). As to the kind of experiment: MTT cell proliferation and viability assay, GM9503. It is filed as cell-based. Conditions: for EC50: Table 2, 72 h, read-out: Human (EC50) μM GM9503 (Normal Skin Fibroblast); for IC50: Table 4, comparative toxicity, 72 h, read-out: Inhibition Concentration (IC50) μM GM9503 (Normal human fibroblast). Here is the method: as §1, §2, §3, §4

Test [4] relates to Human colon carcinoma cell line HCT116. As to the kind of experiment: Mechanism of action: microscopy of treated HCT116 cells over time. Type of test: cell-based. Conditions: 30 μM; for cell morphology (mechanism of cell death): imaged at 2-16 h, 63x magnification. The method, then:
Human colon carcinoma cell line HCT116 was treated with compounds (IIb), (Ie) and (Id) and observed over a time period to determine the mechanism of cell death. The experiment was conducted as follows:
HCT116 cells were seeded and treated with each compound. At each time point, the cells were imaged using a neutral microscope at 63× magnification prior to fixing. The time points were 2, 4, 6, 8, 12, and 16 hours.
This may potentially be caused by a population doubling at this time-point.

In test [5] the test system is SKOV-3 (human ovarian carcinoma cells). Briefly: MTT cell proliferation and viability assay, SKOV-3. Type of test: cell-based. The following applies: SK-OV-3, Table 3, 72 h, read-out: Inhibition Concentration (IC50) μM SKOV-3 (Ovarian). Here is the method:
as §1, §2, §3, §4

The subject of test [6] is A549 (human lung carcinoma cells). As to the kind of experiment: MTT cell proliferation and viability assay, A549. Conditions: for EC50: Table 2, 72 h; for IC50: Table 3, 72 h, read-out: Inhibition Concentration (IC50) μM A549 (Lung). It is filed as cell-based. The method, then: as §1, §2, §3, §4
The subject of test [7] is PC-3 (human prostate carcinoma cells). As to the kind of experiment: MTT cell proliferation and viability assay, PC-3. Type of test: cell-based. Conditions: Table 3, 72 h, read-out: Inhibition Concentration (IC50) μM PC-3 (Prostate). Here is the method:
as §1, §2, §3, §4

Test [8] has as its system MCF-7 (human breast carcinoma cells). Briefly: MTT cell proliferation and viability assay, MCF-7. Type of test: cell-based. The following applies: for EC50: MCF7, Table 2, 72 h; for IC50: MCF7, Table 3, 72 h, read-out: Inhibition Concentration (IC50) μM MCF-7 (Breast). The method, then:
as §1, §2, §3, §4

The subject of test [9] is MDAY-D2 (murine leukemia cells). Briefly: MTT cell proliferation and viability assay, MDAY-D2. Type of test: cell-based. The method, then: as §1, §2, §3, §4
Setting [10] is: Mus musculus, MDAY-D2, Table 2, 72 h.

Regarding `O=C(/C=C/c1ccc(O)c(O)c1)OCC=Cc1ccccc1` [cinnamyl caffeate], the EC50 with B16-BL6 was 1.92 µM.

On to `O=C(/C=C/c1ccc(O)c(O)c1)OCC(O)COC(=O)/C=C/c1ccc(O)c(O)c1` [Compound (IIb), (2E,2′E)-2-hydroxypropane-1,3-diyl bis(3-(3,4-dihroxyphenyl) acrylate], for which the IC50 came to 38 µM in test [1]; 27 µM in [2]; 71.2 µM in [3] (Homo sapiens, Fibroblast); 15.8 µM in test [5]; 21 µM in test [6]; 6.76 µM in test [7]. In addition, the IC50 in test [8] came out at 74.5 µM. Moreover, the EC50 worked out at 6.12 µM in the test with B-16 melanoma cell line; 57.9 µM in test [3] (Homo sapiens, Fibroblast); 2.17 µM in [6]; 1 µM in [8]; 3.4 µM in test [9] (setting [10]). In addition, the “relative aggressiveness of apoptosis induction” value in [4] (compared among (IIb), (Ie), (Id)) is listed as “the most aggressive”. In test [4], the “cell morphology (mechanism of cell death)” value (from here on “cell morphology”) is “exhibited the characteristic membrane blebbing morphology commonly seen during apoptosis”.

On to `CC(=O)OC(COC(=O)/C=C/c1ccc(O)cc1)COC(=O)/C=C/c1ccc(O)cc1` [(2E,2′E)-2-acetoxypropane-1,3-diyl bis(3-(4-hydroxyphenyl)acrylate)], for which the half-maximal effective concentration (EC50) with B16-BL6 was 81.9 µM.

With `O=C(O)/C=C/c1ccc(O)c(O)c1` [caffeic Acid, caffeic acid, reference compound], the IC50 in test [1] turned out to be 24 µM; in test [3] (Homo sapiens, Fibroblast), 22 µM.

As to `O=C(/C=C/c1ccc(O)c(O)c1)OCc1ccccc1` [Benzyl caffeate, benzyl caffeate], the EC50 in the test on B16-BL6 is 2.03 µM.

In the case of `O=C(/C=C/c1ccccc1)OCC(O)COC(=O)/C=C/c1ccc(O)c(O)c1` (stereo not shown) [Compound (Ie), (E)-3-(cinnamoyloxy)-2-hydroxypropyl 3-(3,4-dihydroxypheyl)acrylate], the IC50 was determined as 23 µM in test [1]; 27.9 µM in test [2]; 37 µM in test [3] (Homo sapiens, Fibroblast); 16.5 µM in test [5]; 33.2 µM in [6]; 9.04 µM in test [7]. Besides, in test [8], the IC50 is 33 µM. The EC50 in test [2] was 59.2 µM; in [6] it was 0.64 µM; in test [8] it was 25.9 µM; in test [9] (setting [10]) it was 1.5 µM. Besides, the “cell morphology” value in test [4] was “exhibited the characteristic membrane blebbing morphology commonly seen during apoptosis”.

In the case of `C[S+](C)[O-]` [DMSO], the EC50 came out at 20.3 µM in test [3] and 43.6 µM in test [9] (Table 2, 72 h).

In the case of `COc1ccc(/C=C/C(=O)OCC(O)COC(=O)/C=C/c2ccccc2)cc1OC` (stereo not shown) [Compound (Id), (E)-3-(cinnamoyloxy)-2-hydroxypropyl 3-(3,4-dimethoxyphenyl) acrylate], the IC50 in [1] is 16 µM; in test [2], 11.5 µM; in [3] (Homo sapiens, Fibroblast), 60 µM; in test [5] it was 22 µM; in test [6] it was 18.2 µM; in test [7], 9.07 µM. In addition, the IC50 in [8] was 85.2 µM. The EC50 amounted to 102 µM in test [2]; 1.08 µM with B-16 melanoma cell line; 0.59 µM in test [6]; 72.2 µM in test [8]; 5 µM in [9] (setting [10]). Moreover, in [4], the “cell morphology” value is “exhibited the characteristic membrane blebbing morphology commonly seen during apoptosis”.

Take `O=C(/C=C/c1ccc(O)c(O)c1)OCCc1ccccc1` [phenethyl caffeate]: the 50% effective concentration (EC50) in the test with B16-BL6 was 3.16 µM.

Consider `COc1cc(/C=C/C(=O)OCC(COC(=O)/C=C/c2ccc(O)cc2)OC(C)=O)ccc1O` (stereo not shown) [(E)-2-acetoxy-3-(((E)-3-(4-hydroxy-3-methoxyphenyl)acryloyl)oxy)propyl 3-(4-hydroxyphenyl)acrylate], for which, in the test with B16-BL6, the EC50 is 66 µM.

With `CC(=O)O[C@H]1C(=O)[C@@]2(C)[C@H]([C@H](OC(=O)c3ccccc3)[C@]3(O)C[C@H](OC(=O)[C@H](O)[C@@H](NC(=O)c4ccccc4)c4ccccc4)C(C)=C1C3(C)C)[C@]1(OC(C)=O)CO[C@@H]1C[C@@H]2O` [paclitaxel, reference compound], the IC50 in test [1] was found to be 2.1 µM; in test [2], 0.59 µM; in test [3] (Homo sapiens, Fibroblast), 0.7 µM; in test [5], 0.75 µM; in [6], 0.69 µM; in test [7], 1.32 µM. For the same compound, the IC50 in [8] came to 11.7 µM.

In general, EC50 refers to the concentration giving half of the maximal effect.
